Residue numbers refer to the chain shown, from its start.
Assays:
WT P2X2 = target: T1, WT P2X2 (Homo sapiens, UniProt Q9UBL9); assay: Fast GCaMP-mScarletI assay in yeast, WT P2X2; type: cell-based; conditions: for Bottom, best fit value / Hillslope, best fit value / Top, best fit value: four-parameter logistic fit of ΔF/ΔT
T1 construct: expressed in transfected cells; host or cells: S. cerevisiae BY4741 background, P2X2 genome-integrated under a galactose-inducible promoter
T1 sequence (Q9UBL9 1-471): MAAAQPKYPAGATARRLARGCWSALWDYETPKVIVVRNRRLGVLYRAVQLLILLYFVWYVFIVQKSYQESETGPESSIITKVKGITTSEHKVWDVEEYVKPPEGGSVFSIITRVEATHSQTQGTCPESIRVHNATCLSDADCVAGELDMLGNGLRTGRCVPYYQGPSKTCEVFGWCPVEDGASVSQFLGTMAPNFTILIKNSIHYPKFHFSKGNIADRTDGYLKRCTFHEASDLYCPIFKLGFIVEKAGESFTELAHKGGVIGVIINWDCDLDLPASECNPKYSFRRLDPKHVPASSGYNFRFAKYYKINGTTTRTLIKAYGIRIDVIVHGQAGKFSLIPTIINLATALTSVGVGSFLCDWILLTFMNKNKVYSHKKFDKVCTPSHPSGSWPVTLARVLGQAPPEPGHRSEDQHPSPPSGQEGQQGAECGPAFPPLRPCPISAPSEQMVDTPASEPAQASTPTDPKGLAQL
Procedure: (§1) Figure 4 Unnatural-ligand gating in LBD libraries.A, WT P2X2 was tested with 1 mM ATP, 500 μM AMP-PNP, and compared to ATP with the broken receptor (K81C K83C) control with 1 mM ATP in the fast GCaMP-mScarletI assay (n = 3). […] B, heat map summarizing AMP-PNP signaling (ΔF/ΔT, fast GCaMP-mScarletI assay) in the site-saturation libraries (n = 2–3). All values are normalized to WT P2X2 with saturating amounts of AMP-PNP (500 μM) and therefore represent low signal (ΔF/ΔT) compared to the ATP ligand. C, F301W, F303Y, and A304W were combinatorially combined and tested against the WT, K81C K83C broken P2X2, and the single mutant clones with both ATP (1 mM, black) and AMP-PNP (500 μM, pink). […] Values here represent signal onset and are not normalized to a positive control (n = 2–5). D–K, dose response of each P2X variant with both ATP (black) and AMP-PNP (pink) in the fast GCaMP-mScarletI assay (n = 3). Statistics were performed via one-way ANOVA with Dunnett’s multiple comparisons with to the “broken” K81C K83C negative control. ∗ represents a p value ≤0.05, ∗∗ is p ≤ 0.01, and ∗∗∗ is p ≤ 0.001.
Given that the yeast-based screen seemed to recapitulate important structural and functional features of human ion channel function, we hypothesized that it might be possible to engineer new P2X2 functionalities in yeast, including new ligand specificity. […] We screened our 133-member library in the presence of 500 μM AMP-PNP (Fig. S7). While the AMP-PNP signal was uniformly low, three substitutions (F301W, F303Y, and A304W) increased signaling 2.5 to 2.8 times relative to the negative control receptor (Figs. 4B, and S7, D, F, and G). To gain a more complete view of the properties of these mutants, dose–response curves were generated with ATP and AMP-PNP (Fig. 4, D–G, and Table S2).
(§2) GCaMP assays were performed as follows. P2X2 GCaMP strains were designed with a bi-cistronic reporter, in which the GCaMP protein was followed by a 2A peptide and a mScarletI reporter ([53]). The co-translated mScarletI was designed to act as a control for plasmid loss, GCaMP breakage via nonsense mutation, and contamination. […] P2X2-GCaMP strains were cultured and induced as previously described. Samples were induced for 24 h to allow for the accumulation of the mature GCaMP protein. Cells were washed three times in 0.1 M MES/Tris buffer and resuspended with MES/Tris with supplemental calcium. Cells were loaded onto a black, clear bottom microplate and imaged on a FlexStation3 plate reader. Samples were imaged in “flex” mode. Samples were imaged for 48 s at an interval of 1.6 s. Fluorescence was measured with an excitation at 485 nm, and emission 525 nm. At the 21 s mark, 100 μl ligand solution was transferred to the cells. For strains with mScarlet, fluorescence was read with excitation 570 nm/emission 610 nm. Slopes were calculated from the last 6 points of measurement and were normalized to the positive control samples. Any replicate in which the mScarlet value was measured to be over 2 standard deviations less than the mean for that set was discarded from further analysis.
(§3) For multiple comparisons in the site-saturation screening data, One-way ANOVA with Dunnett’s multiple comparisons test was performed where every sample was compared to the “broken” negative control. Significance was plotted where ∗ represents a p value ≤0.05, ∗∗ is p ≤0.01, and ∗∗∗ is p ≤0.001. Dose–response curves were fit with nonlinear regression software using a four-parameter logistic curve. All statistics were calculated and plotted in Graphpad Prism software.

P2X2 F301W+F303Y+A304W = target: T2, P2X2 F301W+F303Y+A304W (Homo sapiens, UniProt Q9UBL9, A304W/F301W/F303Y); assay: Fast GCaMP-mScarletI assay in yeast, P2X2 F301W+F303Y+A304W; type: cell-based; conditions: for Bottom, best fit value / Hillslope, best fit value / Top, best fit value: four-parameter logistic fit of ΔF/ΔT
T2 construct: expressed in transfected cells; host or cells: S. cerevisiae BY4741 background
T2 sequence (Q9UBL9 1-471 F301W/F303Y/A304W): T1 sequence (Q9UBL9 1-471) with F301W, F303Y, A304W
Procedure: as §1
The combined mutations were synergistic, with F303Y + A304W having a predicted additive effect of ca. Ten-fold, relative to the 73-fold seen.
as §2, §3

[1] = four-parameter logistic fit, n = 3, unit inferred, unit M, read-out: EC50, best fit value

signal of wildtype P2X2 receptor (WT P2X2; 500 μM AMP-PNP, Fig. 4A)	improvement compared to the WT channel (rate of signal onset ΔF/ΔT) (P2X2 F301W+F303Y+A304W; at 500 μM AMP-PNP)	SMILES	Bottom, best fit value (WT P2X2; n = 3)	Hillslope, best fit value (WT P2X2; n = 3)	Top, best fit value (WT P2X2; n = 3)	Bottom, best fit value (P2X2 F301W+F303Y+A304W; n = 3)	Hillslope, best fit value (P2X2 F301W+F303Y+A304W; n = 3)	Top, best fit value (P2X2 F301W+F303Y+A304W; n = 3)	EC50 (WT P2X2; [1])	EC50 (P2X2 F301W+F303Y+A304W; [1])
nearly undetectable signal	24 fold	Nc1ncnc2c1ncn2[C@@H]1O[C@H](COP(=O)(O)OP(=O)(O)NP(=O)(O)O)[C@@H](O)[C@H]1O [AMP-PNP]	0.429	-1	1.129	-0.1127	1.945	97.49	–	–
–	–	Nc1ncnc2c1ncn2[C@@H]1O[C@H](COP(=O)(O)OP(=O)(O)OP(=O)(O)O)[C@@H](O)[C@H]1O [ATP]	1.37	2.27	70.62	0.79	2.37	148.40	5.75 µM	8.88 µM

— article PMC11063903, “Engineering a human P2X2 receptor with altered ligand selectivity in yeast” (The Journal of Biological Chemistry, 2024)
